The values that follow come from PubChem BioAssay (NCI).

SMILES strings stand for the structures.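 Exposure lasted 48 hours, with cells grown in 96-well plates and compounds tested at five concentrations. GI50 = concentration required for 50% inhibition of growth. The concentration for full growth arrest is given as TGI.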

Experiment in all cases: NCI anticancer screen, dose series, 48 h
Assay [1] deals with NCI-H226 lung.
In assay [2] the test system is TK-10 renal.
The test system of assay [3] is OVCAR-8 ovarian.
Assay [4] concerns SF-539 CNS.
Assay [5] deals with BT-549 breast.
Assay [6] deals with U251 CNS.
Assay [7] concerns MALME-3M melanoma.
Assay [8] has as its system EKVX NSCLC.
For assay [9], the system named is SW-620 colon.
Assay [10] concerns UO-31 renal.

For `Cc1ccc(C(=O)/C(=C\c2ccc([N+](=O)[O-])cc2)S(=O)Cc2ccc(Cl)cc2)cc1` (stereo not given), the GI50 in assay [1] was 2.81 µM; in assay [2] it was 1.86 µM; in [3] it was 2.05 µM; in assay [4] it was 1.85 µM; in assay [5], 1.73 µM; in assay [6], 1.56 µM. For the same compound, the GI50 in assay [7] is 1.74 µM; in assay [8], 1.88 µM; in assay [9], 1.59 µM; in assay [10], 1.41 µM. Further, the TGI in assay [1] came to 11.5 µM; in assay [2], 3.89 µM; in assay [3] it was 5.13 µM; in assay [4], 3.37 µM; in assay [5], 3.22 µM; in assay [6], 3 µM. In addition, the TGI amounted to 3.64 µM in assay [7], 4.02 µM in [8], 3.44 µM in [9] and 2.78 µM in assay [10].

With `Cc1cn2c(/C=N/N=C(N)N)c(-c3ccccn3)nc2s1`, the GI50 was 25.1 µM in [1]; 16.1 µM in assay [2]; 13.9 µM in assay [3]; 3.35 µM in [4]; 7.69 µM in [5]; 19.1 µM in [6]. The GI50 in [7] was 21.8 µM; in [8] it was 8.37 µM; in assay [9] it was 7.61 µM; in assay [10] it was 7.98 µM. For the same compound, the TGI in [1] is > 58.2 µM; in assay [2], 32.8 µM; in [3], > 56.2 µM; in [4], 14.4 µM; in [5], 25.9 µM; in [6], 45.1 µM. Also, the TGI in assay [7] was 44.4 µM; in assay [8] it was 25.8 µM; in [9] it was 25 µM; in assay [10], > 20.5 µM.

As to `C/C(=N\NC(=S)SCc1ccccc1)c1ccccn1`, the TGI in assay [1] was determined as 1.62 µM; in assay [2] it was 13.5 µM; in assay [3], 0.326 µM; in assay [4], 2.49 µM; in assay [5], 6.07 µM; in [6], 13.3 µM. Also, the TGI in assay [7] was 7.4 µM; in assay [8] it was < 0.01 µM; in [9] it was 9.86 µM; in [10], 14.2 µM.

Turning to `CC1(C)NCCC[C@]2(C)[C@H]3CC[C@@H]4[C@H]5[C@H](C(=O)/C=C/c6ccccn6)CC[C@]5(CO)CC[C@@]4(C)[C@]3(C)CC[C@@H]12`, the GI50 in assay [1] was 4.24 µM; in assay [2], 4.8 µM; in assay [3] it was 2.02 µM; in assay [4], 1.78 µM; in assay [5] it was 2.27 µM; in assay [6], 1.68 µM. In addition, the GI50 is 1.77 µM in assay [7], 5.51 µM in [8], 1.82 µM in assay [9] and 5.7 µM in [10]. In addition, the TGI was 20.7 µM in assay [1]; 24.8 µM in assay [2]; 4.54 µM in [3]; 3.6 µM in [4]; 11 µM in assay [5]; 3.24 µM in assay [6]. Besides, the TGI in [7] is 3.51 µM; in assay [8] it was 23.4 µM; in [9] it was 3.49 µM; in assay [10], 23.3 µM.

Regarding `CN(C)CCNc1c2ccccc2nc2oc3ccccc3c12`, the GI50 in assay [1] was 8.65 µM; in assay [2], 5.86 µM; in assay [3], 6.66 µM; in assay [4], 4.03 µM; in [5] it was 5.67 µM; in [6], 7.87 µM. In addition, the GI50 in [7] is 3.73 µM; in [8], 6.49 µM; in assay [9] it was 3.61 µM; in assay [10], 4.91 µM. In addition, the TGI is 47.1 µM in [1]; 55.5 µM in assay [2]; > 100 µM in assay [3]; 15.3 µM in assay [4]; 18.4 µM in assay [5]; 24.7 µM in assay [6]. Also, the TGI in assay [7] amounted to 17.6 µM; in [8] it was 32.2 µM; in assay [9] it was 15.1 µM; in [10] it was 46.9 µM.

As for `O=C(O)c1c(=O)cccc2ssc12`, the GI50 in assay [1] is 1.87 µM; in assay [2], 1.75 µM; in [3] it was 1.76 µM; in assay [4] it was 1.98 µM; in [5] it was 1.68 µM; in assay [6], 1.74 µM. The GI50 was 2.22 µM in assay [7], 1.35 µM in [8], 2.22 µM in assay [9] and 1.66 µM in [10]. Also, the TGI in [1] was 3.6 µM; in assay [2] it was 3.23 µM; in assay [3], 3.18 µM; in assay [4], 3.84 µM; in assay [5] it was 3.12 µM; in [6], 3.16 µM. Also, the TGI in assay [7] is 4.45 µM; in assay [8], 3.12 µM; in assay [9], 5.59 µM; in assay [10], 3.44 µM.

In the case of `C=C1C(=O)O[C@H]2[C@H]1CC/C(COC(=O)C(C)c1ccc(CC(C)C)cc1)=C\CC[C@@]1(C)O[C@@H]21` (stereo not given in full), the GI50 is 1.64 µM in [1]; 1.74 µM in assay [2]; 1.32 µM in assay [3]; 1.6 µM in [4]; 0.533 µM in assay [5]; 1.49 µM in assay [6]. Besides, the GI50 was 1.56 µM in assay [7], 1.75 µM in [8], 0.534 µM in assay [9] and 1.28 µM in [10]. Moreover, the TGI was 3.52 µM in [1]; 3.19 µM in [2]; 3.51 µM in assay [3]; 2.97 µM in assay [4]; 1.89 µM in assay [5]; 2.89 µM in assay [6]. Besides, the TGI in assay [7] is 2.99 µM; in assay [8], 3.35 µM; in assay [9], 1.95 µM; in [10], 2.54 µM.

`O=C1OC(=O)C2CCCC3CCCC1C32` (stereo not given): the TGI in [1], in assay [2], in [3], in assay [4], in [5] and in assay [6] was > 100 µM throughout. Further, the TGI in assay [7], in assay [8], in [9] and in [10] was > 100 µM throughout.

As for `CC(=O)O[C@H]1[C@@H]2OC(=O)C(CSc3ccccc3)[C@@H]2C[C@H]2O[C@]2(C)CC/C=C(\C)CCC[C@@H]1C` (stereo not given in full), the GI50 in assay [1] is 4.69 µM; in assay [2] it was 1.65 µM; in assay [3], 3.77 µM; in [4], 9.4 µM; in assay [5], 1.98 µM; in [6] it was 3.97 µM. For the same compound, the GI50 is 4.05 µM in [7], 3.27 µM in assay [8], 2.22 µM in assay [9] and 1.96 µM in assay [10]. Also, the TGI in assay [1] is 18 µM; in assay [2], 3.74 µM; in assay [3] it was 29.5 µM; in assay [4], 23.3 µM; in assay [5] it was 8.84 µM; in assay [6], 16.5 µM. In addition, the TGI was found to be 19.5 µM in [7], 12.9 µM in assay [8], 4.92 µM in [9] and 5.26 µM in assay [10].

With `CC1=C(/C=C/C(C)=C/C=C/C(C)=C/C(=O)O)C(C)(C)CCC1`, the TGI is 72.6 µM in [1]; > 100 µM in assay [2]; > 77.9 µM in assay [3]; 75.7 µM in [4]; 63 µM in assay [5]; 70.7 µM in [6]. For the same compound, the TGI in [7] was > 75.6 µM; in assay [8], > 100 µM; in assay [9], 64.2 µM; in assay [10] it was > 74.7 µM.

In the case of `O=C1C2CCN(CC2)C1(CO)CO`, the TGI in assay [1] is 46.6 µM; in assay [2] it was 32.2 µM; in assay [3], 74.7 µM; in [4] it was > 78.1 µM; in assay [5] it was 41.7 µM; in assay [6], > 75.5 µM. For the same compound, the TGI came to 36.6 µM in assay [7], 99.4 µM in assay [8], 36.3 µM in [9] and 34.1 µM in assay [10].

Turning to `CN(Cc1cc(Br)cc(Br)c1O)Cc1c(O)ccc2ccccc12`, the TGI in [1] came to 40.5 µM; in assay [2], 36.4 µM; in assay [3], 60 µM; in assay [4], 35.6 µM; in [5], 49 µM; in [6], 41 µM. For the same compound, the TGI in [7] is 42.9 µM; in assay [8] it was 35.8 µM; in [9], > 100 µM; in [10], 30.9 µM.

`NS(=O)(=O)CC1CC[CH-]CC1.[Cl-].[Cl-].[Cl-].[Cl-].[Cl-].[Sb+5].c1ccncc1`: the GI50 in assay [1], in assay [2], in assay [3], in [4], in assay [5] and in assay [6] was > 100 µM each time. The GI50 in assay [7], in [8], in assay [9] and in [10] was > 100 µM each time. The TGI in [1], in assay [2], in assay [3], in [4], in [5] and in assay [6] was > 100 µM throughout. For the same compound, the TGI in [7], in assay [8], in assay [9] and in [10] was > 100 µM in each case.

`Cc1cc(-c2ccccn2)cc(C)c1/C=C/c1cncc(-c2nn[nH]n2)c1`: the GI50 in assay [1], in [2], in assay [3], in assay [4], in assay [5] and in [6] was > 25 µM throughout. In addition, the GI50 in assay [7], in assay [8], in assay [9] and in assay [10] was > 25 µM each time. Moreover, the TGI in assay [1], in assay [2], in [3], in [4], in assay [5] and in [6] was > 25 µM in each case. The TGI in [7], in [8], in assay [9] and in assay [10] was > 25 µM throughout.
